# Experimental data as given in US20060172945A1, “Human neutrophil alpha-defensin 4 inhibition of HIV-1” (priority 2005, published 2006).
# “Also recorded” adds a separate entry of the source. No end group written: not given here.
# Tested on: HIV-1 isolates IIIB (X4), BaL (R5), B703 (X4), NSI03 (R5) in PBMC
# Experiment: Inhibition of HIV-1 replication in PBMC, HIV-1 p24 antigen-capture ELISA
# Format: cell-based
# Settings: HIV-1 infected human PBMC in vitro, p24 at day 4; HNP4 compared with HNPs 1-3
# Experimental: Inhibition of HIV-1 in vitro by α-defensins 1-3 was first reported by Nakashima et al, 1993 [11], which has been confirmed by several recent reports.
# Cells infected with the HIV-1 virus were added to duplicate series of wells containing varying concentrations of test defensin in 200 ul complete culture medium, and fed after 48 hours with fresh defensin of appropriate quantities. Medium alone was used as the control. The level of HIV-1 replication was measured at day 4 after infection by HIV-1 p24 antigen-capture ELISA. Percent infection was determined as a function of HIV p24 released into the medium in sample wells versus in control wells.
substance,measurement,value
"HNP4: Human neutrophil α-defensin 4, 33 amino acid residues; amino acid residues 64-96 of defensin 4 (VCSCRLVFCRRTELRVGNCLIGGVSFTYCCTRV; ends and bridges not checked; cysteine pairing not given here; UniProt P12838 64-96, looked up, fragment)",Inhibition of HIV-1 (in words),significantly more effective inhibitor than HNPs 1-3; also recorded: significantly and unexpectedly stronger
